Assay results as given in the supplement of paper PMC11451515.

Test system: SEM cells
Assay: cell viability relative to DMSO control; higher = less cytotoxic
Settings: 48 h
Outline: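 NOMO1 or SEM cells were plated at 500 cells/well and P12-Ichikawa cells at 1000 cells/well in 1536-well plates (5 μl), after each leukemia line had been adapted for at least four passages in each medium. Pin dosing delivered library compounds in DMSO at 11 threefold concentrations, 47 μM to 0.79 nM. CellTiter-Glo One luminescence was read after 48 h at 37°C. Viability is reported as a per-plate percentage of DMSO wells, with cell-free wells as background.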

[1] = HPLM + 10% dialyzed FBS, 0.000781 µM
[2] = HPLM + 10% dialyzed FBS, 0.00234 µM
[3] = HPLM + 10% dialyzed FBS, 0.00702 µM
[4] = HPLM + 10% dialyzed FBS, 0.0211 µM
[5] = HPLM + 10% dialyzed FBS, 0.0632 µM
[6] = HPLM + 10% dialyzed FBS, 0.19 µM
[7] = HPLM + 10% dialyzed FBS, 0.569 µM
[8] = HPLM + 10% dialyzed FBS, 1.71 µM
[9] = HPLM + 10% dialyzed FBS, 5.12 µM
[10] = HPLM + 10% dialyzed FBS, 15.4 µM
[11] = HPLM + 10% dialyzed FBS, 46.1 µM
[12] = RPMI 5 mM glucose + 10% FBS, 0.000781 µM
[13] = RPMI 5 mM glucose + 10% FBS, 0.00234 µM
[14] = RPMI 5 mM glucose + 10% FBS, 0.00702 µM
[15] = RPMI 5 mM glucose + 10% FBS, 0.0211 µM
[16] = RPMI 5 mM glucose + 10% FBS, 0.0632 µM
[17] = RPMI 5 mM glucose + 10% FBS, 0.19 µM
[18] = RPMI 5 mM glucose + 10% FBS, 0.569 µM
[19] = RPMI 5 mM glucose + 10% FBS, 1.71 µM
[20] = RPMI 5 mM glucose + 10% FBS, 5.12 µM
[21] = RPMI 5 mM glucose + 10% FBS, 15.4 µM
[22] = RPMI 5 mM glucose + 10% FBS, 46.1 µM
[23] = RPMI 5 mM glucose + 10% dialyzed FBS, 0.000781 µM
[24] = RPMI 5 mM glucose + 10% dialyzed FBS, 0.00234 µM
[25] = RPMI 5 mM glucose + 10% dialyzed FBS, 0.00702 µM
[26] = RPMI 5 mM glucose + 10% dialyzed FBS, 0.0211 µM
[27] = RPMI 5 mM glucose + 10% dialyzed FBS, 0.0632 µM
[28] = RPMI 5 mM glucose + 10% dialyzed FBS, 0.19 µM
[29] = RPMI 5 mM glucose + 10% dialyzed FBS, 0.569 µM
[30] = RPMI 5 mM glucose + 10% dialyzed FBS, 1.71 µM
[31] = RPMI 5 mM glucose + 10% dialyzed FBS, 5.12 µM
[32] = RPMI 5 mM glucose + 10% dialyzed FBS, 15.4 µM
[33] = RPMI 5 mM glucose + 10% dialyzed FBS, 46.1 µM

SMILES	cell viability [1] [%]	cell viability [2] [%]	cell viability [3] [%]	cell viability [4] [%]	cell viability [5] [%]	cell viability [6] [%]	cell viability [7] [%]	cell viability [8] [%]	cell viability [9] [%]	cell viability [10] [%]	cell viability [11] [%]	cell viability [12] [%]	cell viability [13] [%]	cell viability [14] [%]	cell viability [15] [%]	cell viability [16] [%]	cell viability [17] [%]	cell viability [18] [%]	cell viability [19] [%]	cell viability [20] [%]	cell viability [21] [%]	cell viability [22] [%]	cell viability [23] [%]	cell viability [24] [%]	cell viability [25] [%]	cell viability [26] [%]	cell viability [27] [%]	cell viability [28] [%]	cell viability [29] [%]	cell viability [30] [%]	cell viability [31] [%]	cell viability [32] [%]	cell viability [33] [%]
CCCCC(C=O)NC(=O)C(CC(C)C)NC(=O)OCc1ccccc1 (centres undefined)	93.8	99.8	90.6	105	98.5	58	99.1	102	92.1	81.1	57	110	87.2	94.2	102	110	88.7	91.8	90.9	84.3	85.1	52.6	93.8	82.8	78.1	89.1	86.2	66.2	96.7	94.5	84.8	71.1	47.9
CN1CCC[C@@H]1CCO[C@](C)(c1ccccc1)c1ccc(Cl)cc1	85.8	96.5	102	104	122	108	99.1	115	111	104	81.4	103	116	118	117	115	115	112	114	124	118	97.4	86.1	110	107	104	114	121	109	116	115	118	93
COc1cc2nc(-c3cc(F)ccc3O)nc(N[C@@H]3CNC[C@H]3C(C)(C)O)c2cc1OC	57.3	96.4	90.5	97.4	89.5	59.6	45.6	37.2	28.3	16.1	7.01	59.9	101	99.6	94.6	90.4	62.3	54.6	35.7	25.6	14.5	5.78	46.9	94.4	80.5	86.5	64	45.2	34.6	30.6	15.8	14.3	6.75
CC[C@H](NC(=O)[C@H](C)NC)C(=O)N1C[C@@H](O)C[C@H]1Cc1c(-c2[nH]c3cc(F)ccc3c2C[C@@H]2C[C@H](O)CN2C(=O)[C@H](CC)NC(=O)[C@H](C)NC)[nH]c2cc(F)ccc12	90.7	122	116	116	136	134	129	134	112	119	88.2	–	–	–	–	–	–	–	–	–	–	–	–	–	–	–	–	–	–	–	–	–	–
C/C(O)=C(\C#N)C(=O)Nc1cc(Br)ccc1Br	108	102	112	107	112	110	107	109	108	32.2	75.4	122	104	104	106	119	112	99	113	106	32.8	84.9	112	110	108	118	107	108	105	111	99	32	70.5
CC[C@]12\C=C/CN3CC[C@]4([C@@H](N(C)C5=CC(=C(C=C45)[C@]6(C[C@H]7C[C@H](CN(C7)CC8=C6[NH]C9=C8C=CC=C9)C(C)(F)F)C(=O)OC)OC)[C@](O)([C@@H]1OC(C)=O)C(=O)OC)[C@H]23	107	97.9	94.9	74.6	29.3	21.1	22	22	25	17.8	6.8	120	120	87.4	76.9	18.7	18.8	17.3	20.2	15.6	11.3	6.89	95.3	83	74.5	68.9	43.2	21.2	16.9	18.9	21	15.3	5.17
COC1=CC=C(C=C1O)C/2=C/C(=O)C3=C(O2)C=C(O)C=C3O	98	89.5	85.9	95.2	98.4	97.9	92.4	93.7	79.6	65.7	60.6	103	95.4	113	94.3	106	113	110	113	94.8	87.9	63.7	97.6	94.8	105	104	102	87.7	111	119	101	81.3	56.8
CC1(N2CCC(n3c([C@@H]4CCCNC4)nc4ccccc43)CC2)CCCCCCC1	76.6	88.6	99.7	105	105	89.3	103	96	92.5	72.2	42.4	99.3	87.8	105	119	121	107	119	116	109	96.6	87.3	103	78.8	98.7	111	106	95.7	117	113	130	77.3	87.6
COC1=CC=CC(=C1N)\C2=C\C(=O)C3=C(O2)C=CC=C3	99.8	123	124	130	129	146	140	145	148	145	156	119	112	120	121	136	136	161	143	141	177	144	106	111	134	134	128	136	145	164	149	160	155
O=C(c1ccc(F)c(F)c1Nc1ccc(I)cc1F)N1CC(O)([C@@H]2CCCCN2)C1	75.2	92.2	98.2	99.8	85.4	83.6	105	97	69.2	71.4	60.8	98.8	88.6	100	104	98.1	100	92.5	99.1	77.8	71.6	55.1	82.8	96.3	97.4	111	104	96.6	86.2	92.7	68.5	76.9	60.1
COc1ccc(C2Sc3ccccc3N(CCN(C)C)C(=O)C2OC(C)=O)cc1 (centres undefined)	99.2	111	106	115	113	117	115	112	106	112	108	113	109	86	99.4	103	111	111	105	99.2	110	69	87.2	112	99.6	101	107	115	107	109	124	95.5	85.8
ClC1=CC\2=C(NC(=O)\C(=C2N[C@@H]3CN4CCC3CC4)C5=NC6=C([NH]5)C=CC=C6)C=C1	116	98.7	102	89.2	53.3	27.7	24.2	21	8.58	3.33	5.63	95.8	87.5	83.9	71	67.4	22.8	16.2	11.2	6.87	2.16	2.19	99.5	108	98	86.8	63.2	25.4	19.1	15	8.88	2.81	3.39
CN[C@@H]1Cc2cccc3[nH]c(=O)n(c23)C1	108	119	105	121	98.8	100	110	103	104	92.8	95.4	–	–	–	–	–	–	–	–	–	–	–	–	–	–	–	–	–	–	–	–	–	–
O=C(O)/C=C/c1ccc(O)c(O)c1	90.4	102	93.6	122	106	93.6	98.5	105	112	78	20.2	108	96.8	90.3	114	110	90.6	109	106	98.5	39.1	5.15	99.2	117	111	112	103	114	104	91.7	105	50	5.58
CC[C@@]1(O)C(=O)OC\C2=C1\C=C\3N(CC4=C3N=C5C=CC=CC5=C4)C2=O	126	116	110	103	40.3	14.9	7.26	4.92	4.54	4.65	5.06	105	86.8	87.2	55.3	15.3	11.4	6.29	3.5	3.72	3.35	4.07	127	119	105	77.2	28.1	13.4	7.26	4.41	4.16	4.15	4.83
Nc1nnc(-c2cccc(Cl)c2Cl)c(N)n1	80.7	80	98.9	21.9	96.6	92.1	96.5	103	105	115	92.4	71.7	74.5	85.2	13.1	97.6	96.7	104	99.1	99.9	90.4	89.7	88.5	88.1	88.2	16.1	92.1	97.5	103	101	101	107	113
